Data: patent publication US7022696B2, “Piperazino-derivatives and their use as PDE4 inhibitor” (Altana Pharma AG, priority 2001, dated 2006)
Counter-ions that a name gives are not always drawn.

Compound | melting point
COc1ccc(C2=NN(c3ccc(C(=O)N4CCN(CCCN(C)C)CC4)cc3)C(=O)[C@@H]3CC=CC[C@H]23)c2c1OC(C)(C)C2.Cl.Cl [Compound 11, (4aS,8aR)-2-(4-{1-[4-(3-Dimethylamino-propyl)-piperazin-1-yl]-methanoyl}-phenyl)-4-(7-methoxy-2,2-dimethyl-2,3-dihydro-benzofuran-4-yl)-4a,5,8,8a-tetrahydro-2H-phthalazin-1-one dihydrochloride] | 262 °C (dec.)
CCOc1ccc(C2=NN(c3ccc(C(=O)N4CCN(CCCN(C)C)CC4)cc3)C(=O)[C@@H]3CC=CC[C@H]23)cc1OCC.Cl.Cl | 248 °C (dec.)
COc1ccc(C2=NN(c3ccc(C(=O)N4CCN(C(=O)c5ccco5)CC4)cc3)C(=O)C3CC=CCC23)c2c1OC(C)(C)C2 [Compound 9, (4aS,8aR)-2-(4-{1-[4-(1-furan-2-yl-methanoyl)-piperazin-1-yl]-methanoyl}-phenyl)-4-(7-methoxy-2,2-dimethyl-2,3-dihydrobenzofuran-4-yl)-4a,5,8,8a-tetrahydro-2-phthalazin-1-one] | 138 to 140 °C
CCOc1ccc(C2=NN(c3ccc(C(=O)N4CCN(CCN5CCCC5)CC4)cc3)C(=O)[C@@H]3CC=CC[C@H]23)cc1OCC.Cl.Cl [Compound 24, (4aS,8aR)-4-(3,4-Diethoxy-phenyl)-2-(4-{1-[4-(2-pyrrolidin-1-yl-ethyl)-piperazin-1-yl]-methanoyl}-phenyl)-4a,5,8,8a-tetrahydro-2H-phthalazin-1-one dihydrochloride] | 185 to 186 °C
COc1ccc(C2=NN(c3ccc(C(=O)N4CCN(C/C=C/c5ccccc5)CC4)cc3)C(=O)[C@@H]3CC=CC[C@H]23)c2c1OC(C)(C)C2.Cl [Compound 8, (4aS,8aR)-4-(7-methoxy-2,2-dimethyl-2,3-dihydro-benzofuran-4-yl)-2-(4-{1-[4-((E)-3-phenyl-allyl)-piperazin-1-yl]-methanoyl}-phenyl)-4a,5,8,8a-tetrahydro-2H-phthalazin-1-one hydrochloride] | 230 to 231 °C
CCOc1ccc(C2=NN(c3ccc(C(=O)N4CCN(c5cnn(-c6ccccc6)c(=O)c5Cl)CC4)cc3)C(=O)[C@@H]3CC=CC[C@H]23)cc1OCC [Compound 12, (4aS,8aR)-2-{4-[4-(5-Chloro-6-oxo-1-phenyl-1,6-dihydro-pyridazin-4-yl)-piperazine-1-carbonyl]-phenyl}-4-(3,4-diethoxy-phenyl)-4a,5,8,8a-tetrahydro-2H-phthalazin-1-one] | 148 to 151 °C
CCOc1ccc(C2=NN(c3ccc(C(=O)N4CCN(CCN5CCOCC5)CC4)cc3)C(=O)[C@@H]3CC=CC[C@H]23)cc1OCC.Cl.Cl | 255 °C (dec.)
CCOc1ccc(C2=NN(c3ccc(C(=O)N4CCN(c5nc(-c6ccccc6)ns5)CC4)cc3)C(=O)[C@@H]3CC=CC[C@H]23)cc1OCC [Compound 17, (4aS,8aR)-4-(3,4-Diethoxyphenyl)-2-(4-{1-[4-(3-phenyl-1,2,4-thiadiazol-5-yl)-piperazin-1-yl]-methanoyl}-phenyl)-4a,5,8,8a-tetrahydro-2H-phthalazin-1-one] | 168 to 169 °C
COc1ccc(C2=NN(c3ccc(C(=O)N4CCN(c5nc(-c6ccccc6C)ns5)CC4)cc3)C(=O)[C@@H]3CC=CC[C@H]23)cc1OC.Cl [Compound 19, (4aS,8aR)-4-(3,4-Dimethoxyphenyl)-2-(4-{1-[4-(3-o-tolyl-1,2,4-thiadiazol-5-yl)-piperazin-1-yl]-methanoyl}-phenyl)-4a,5,8,8a-tetrahydro-2H-phthalazin-1-one hydrochloride] | 115 to 118 °C
CCOc1ccc(C2=NN(c3ccc(C(=O)N4CCN(C(=O)c5ccco5)CC4)cc3)C(=O)[C@@H]3CC=CC[C@H]23)cc1OCC [Compound 4, (4aS,8aR)-4-(3,4-Diethoxyphenyl)-2-(4-{1-[4-(1-furan-2-yl-methanoyl)-piperazin-1-yl]-methanoyl}-phenyl)-4a,5,8,8a-tetrahydro-2H-phthalazin-1-one] | 114 to 115 °C
CCOc1ccc(C2=NN(c3ccc(C(=O)N4CCN(C5CCN(C)CC5)CC4)cc3)C(=O)[C@@H]3CC=CC[C@H]23)cc1OCC.Cl.Cl [Compound 28, (4aS,8aR)-4-(3,4-Diethoxy-phenyl)-2-(4-{1-[4-(1-methyl-piperidin-4-yl)-piperazin-1-yl]-methanoyl}-phenyl)-4a,5,8,8a-tetrahydro-2H-phthalazin-1-one dihydrochloride] | 275 °C (dec.)
CCOc1ccc(C2=NN(c3ccc(C(=O)N4CCN(c5ccc([N+](=O)[O-])cn5)CC4)cc3)C(=O)C3CC=CCC23)cc1OCC (as salt: hydrochloride) [Compound 18, (4aS,8aR)-4-(3,4-Diethoxyohenyl)-2-(4-{1-[4-(5-nitro-pyridin-2-yl)-piperazin-1-yl]-methanoyl}-phenyl)-4a,5,8,8a-tetrahydro-2H-phthalazin-1-one hydrochloride] | 117 to 118 °C
COc1ccc(C2=NN(c3ccc(C(=O)N4CCN(CCCN(C)C)CC4)cc3)C(=O)[C@@H]3CC=CC[C@H]23)cc1OC.Cl.Cl [Compound 13, (4aS,8aR)-4-(3,4-Dimethoxyphenyl)-2-(4-{1-[4-(3-dimethylamino-propyl)-piperazin-1-yl]-methanoyl}-phenyl)-4a,5,8,8a-tetrahydro-2H-phthalazin-1-one dihydrochloride] | 223 to 226 °C
COc1ccc(C2=NN(c3ccc(C(=O)N4CCN(CC(=O)N(C)C)CC4)cc3)C(=O)[C@@H]3CC=CC[C@H]23)cc1OC.Cl | 93 to 94 °C
CCOc1ccc(C2=NN(c3ccc(C(=O)N4CCN(CC5CCCO5)CC4)cc3)C(=O)[C@@H]3CC=CC[C@H]23)cc1OCC.Cl (stereo partly drawn) [Compound 23, (4aS,8aR)-4-(3,4-Diethoxy-phenyl)-2-(4-{1-[4-(tetrahydro-furan-2-ylmethyl)-piperazin-1-yl]-methanoyl}-phenyl)-4a,5,8,8a-tetrahydro-2H-phthalazin-1-one hydrochloride] | 131 to 133 °C
CCOc1ccc(C2=NN(c3ccc(C(=O)N4CCN(CCCN5CCOCC5)CC4)cc3)C(=O)[C@@H]3CC=CC[C@H]23)cc1OCC.Cl.Cl [Compound 22, (4aS,8aR)-4-(3,4-Diethoxy-phenyl)-2-(4-{1-[4-(3-morpholin-4-yl-propyl)-piperazin-1-yl]-methanoyl}-phenyl)-4a,5,8,8a-tetrahydro-2H-phthalazin-1-one dihydrochloride] | 170 to 171 °C
CCOc1ccc(C2=NN(c3ccc(C(=O)N4CCN(c5ccccc5)CC4)cc3)C(=O)[C@@H]3CC=CC[C@H]23)cc1OCC.Cl | 146 to 147 °C
COc1ccc(C2=NN(Cc3ccc(C(=O)N4CCN(CCN5CCOCC5)CC4)cc3)C(=O)[C@H]3CC=CC[C@@H]23)c2c1OC(C)(C)C2.Cl.Cl (relative stereo) | 210 to 211 °C
CCOc1ccc(C2=NN(c3ccc(C(=O)N4CCN(c5cccc6[nH]ccc56)CC4)cc3)C(=O)[C@@H]3CC=CC[C@H]23)cc1OCC.Cl [Compound 21, (4aS,8aR)-4-(3,4-Diethoxy-phenyl)-2-(4-{1-[4-(1H-indol-4-yl)-piperazin-1-yl]-methanoyl}-phenyl)-4a,5,8,8a-tetrahydro-2H-phthalazin-1-one hydrochloride] | 142 to 145 °C
